Measured values: publication PMC4166935, “Toward Biophysical Probes for the 5-HT3 Receptor: Structure−Activity Relationship Study of Granisetron Derivatives” (Journal of Medicinal Chemistry, 2010)
Read-outs that look alike come from different tables or passages of the source.

Key:
human 5-HT3A receptor = target: T1, human 5-HT3A receptor (Homo sapiens, UniProt P46098); assay: [3H]granisetron competition binding, HEK293 cell membranes stably expressing h5-HT3AR
T1 construct: expressed in transfected cells; cell membranes
T1 sequence (P46098 24-478): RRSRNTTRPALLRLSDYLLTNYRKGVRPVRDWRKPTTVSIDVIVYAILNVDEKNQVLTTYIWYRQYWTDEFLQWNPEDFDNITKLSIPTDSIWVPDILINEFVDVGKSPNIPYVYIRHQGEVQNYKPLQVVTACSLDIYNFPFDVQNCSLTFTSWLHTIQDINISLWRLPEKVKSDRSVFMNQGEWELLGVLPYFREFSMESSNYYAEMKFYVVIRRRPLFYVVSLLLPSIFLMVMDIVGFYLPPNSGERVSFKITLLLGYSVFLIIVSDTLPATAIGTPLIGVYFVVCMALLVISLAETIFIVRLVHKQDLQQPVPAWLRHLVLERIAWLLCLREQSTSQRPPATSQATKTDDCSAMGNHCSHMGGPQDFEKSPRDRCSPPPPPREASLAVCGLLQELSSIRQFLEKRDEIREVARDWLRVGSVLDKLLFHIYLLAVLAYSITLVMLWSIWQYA
Method: Materials and cell culture maintenance
All cell culture reagents were obtained from Gibco BRL (Paisley, UK), except foetal calf serum which was from Labtech International (Ringmer, UK). [3H]granisetron (63.5 Ci/mmol) was from PerkinElmer (Boston, Massachusetts, USA).
Human embryonic kidney (HEK)-293 cells were maintained on 90 mm tissue culture plates at 37°C and 7% CO2 in a humidified atmosphere. Cells were cultured in DMEM:F12 (Dulbecco’s modified Eagle medium/nutrient mix F12 (1:1)) with GlutaMAX™ I containing 10% foetal calf serum and passaged when 90% confluent.
Receptor expression and radioligand binding
HEK-293 cells stably expressing the human 5-HT3A subunit (accession number: P46098) were scraped into 1 mL of ice-cold HEPES buffer (10 mM, pH 7.4) and frozen at –20°C.
After thawing, they were spun at 13,000 rpm for 1 min, resuspended and 50 μg of cell […]
Competition binding (12 points) was performed on at least three separate plates of cells.
Nonspecific binding was determined using 10 μM quipazine or other competitive antagonist.
Reactions were incubated for at least 1 h at 4°C and terminated by vacuum filtration, using a Brandel cell harvester, onto GF/B filters presoaked in 0.3% polyethyleneimine. Radioactivity was determined by scintillation counting using a Beckman LS6000SC (Fullerton, CA, USA).
Competition binding data were analyzed by iterative curve fitting (GraphPad Prism v3.02, GraphPad Software, San Diego, CA, USA), according to the equation: […]
where [L] is the concentration of ligand present, BL is the binding in the presence of ligand […]
the concentration of L which gives a binding equal to (Bmax + Bmin)/2, and nH is the Hill coefficient. Ki values were calculated from IC50 values using the Cheng–Prusoff equation: […]
where Ki is the equilibrium dissociation constant for binding of the unlabelled antagonist, [L] is the concentration of radioligand and Kd is the equilibrium dissociation constant of the radioligand. Values are presented as mean ± SEM.

5-HT3 receptor = system: 5-HT3 receptor; set-up: method as in earlier work; conditions: cited from earlier work
h5-HT3AR in HEK293 cells = target: T2, h5-HT3AR in HEK293 cells (Homo sapiens, UniProt P46098); assay: Confocal labeling of HEK293 cells stably transfected with h5-HT3AR with fluorescent probe 16; format: cell-based; conditions: 10 μM quipazine with 10 nM 16 for 10 min
T2 sequence (P46098 24-478): T1 sequence (P46098 24-478)
Method: To confirm the validity of this hypothesis, we attached a BODIPY FL fluorophore at this position (Scheme 3) to create fluorescent analogue 16 (BFL-GR). […] Similar images have previously been obtained using fluorescein, rhodamine 6G, and cyanine Cy5 dyes attached via a linker at a similar position of ondansetron, another high-affinity 5-HT3AR antagonist.[30]
Figure 3 Labeling of HEK293 cells stably transfected with h5-HT3AR with 16. Cells were incubated in 10 nM 16 for 10 min with (B) or without (A) 10 μM quipazine, washed, mounted, and then observed in a confocal microscope.[31] […] Unlabeled areas are nuclei. […] Scale bar represents 20 μm.

[1] = Ki (nM) mean ± SEM, competition with 1 nM [3H]granisetron, HEK293 cell membranes stably expressing h5-HT3AR
[2] = competition with 1 nM [3H]granisetron, HEK293 cell membranes stably expressing h5-HT3AR, read-out: Ki (nM) mean ± SEM

**Q.** Which Ki (human 5-HT3A receptor) does the source give for `COc1cccc2c1c(C(=O)NC1CC3CCCC(C1)N3C)nn2C` (stereo not drawn) [2b] here?
**A.** The Ki was 26.3 ± 7.4 nM.

**Q.** Which Ki (human 5-HT3A receptor; [1]) does the source give for `CN1C2CCCC1CC(NC(=O)c1nn(C)c3cccc(OCc4ccccc4)c13)C2` (stereo not drawn) [2c] here?
**A.** Its Ki is 375 ± 61 nM.

**Q.** For `CN1C2CCCC1CC(NC(=O)c1nn(C)c3ccc(OCc4ccccc4)cc13)C2` (stereo not drawn) [3c], which Ki (human 5-HT3A receptor; [2]) is on record?
**A.** The Ki was 3030 ± 956 nM.

**Q.** For `CN1C2CCCC1CC(NC(=O)c1nn(C)c3cc(OCc4ccccc4)ccc13)C2` (stereo not drawn) [4c], which Ki (human 5-HT3A receptor; [2]) is on record?
**A.** Its Ki is 749 ± 183 nM.

**Q.** With `CN1C2CCCC1CC(NC(=O)c1nn(C)c3c(O)cccc13)C2` (stereo not drawn) [5a] as the compound, how does the “potency compared to granisetron” value (5-HT3 receptor) read?
**A.** The value was “as potent as granisetron”.

**Q.** With `COc1cccc2c(C(=O)NC3CC4CCCC(C3)N4C)nn(C)c12` (stereo not drawn) [5b] as the compound, how does the Ki (human 5-HT3A receptor) read?
**A.** The Ki was 71.1 ± 8 nM.

**Q.** With `CN1C2CCCC1CC(NC(=O)c1nn(C)c3c(OCc4ccccc4)cccc13)C2` (stereo not drawn) [5c] as the compound, how does the Ki (human 5-HT3A receptor; [1]) read?
**A.** The Ki was 0.23 ± 0.03 nM.

**Q.** And the “affinity for 5-HT3AR compared to 1” value (human 5-HT3A receptor; comparison with granisetron (1))?
**A.** The value was “equal or exceed the affinity measured for 1”.

**Q.** With `c1ccc2nc(N3CCNCC3)ccc2c1` [Quipazine, quipazine] as the compound, how does the “displacement of 16 from its binding sites” value (h5-HT3AR in HEK293 cells) read?
**A.** Its value is “has displaced 16 from its binding sites”.
